Laboratory results taken from PubChem BioAssay (NCI).
Several values for one entry are separate records, joined by “and”; a condition that tells them apart may be missing. Equal values may be shown once.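 Method: 48-hour compound exposure of cells in 96-well plates, five concentrations, linear interpolation of endpoints. The concentration for 50% growth inhibition is given as GI50. TGI: concentration producing complete growth inhibition.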

Assays:
Test in all cases: NCI-60 cell line screen, 48 h
HS 578T breast = test system: HS 578T breast
HCT-15 colon = test system: HCT-15 colon
COLO 205 colon = test system: COLO 205 colon
M14 melanoma = test system: M14 melanoma
MDA-MB-435 = test system: MDA-MB-435
NCI-H23 lung = test system: NCI-H23 lung
SK-OV-3 ovarian = test system: SK-OV-3 ovarian
PC-3 prostate = test system: PC-3 prostate
K-562 leukemia = test system: K-562 leukemia
CCRF-CEM leukemia = test system: CCRF-CEM leukemia

| SMILES | TGI (HS 578T breast) | TGI (HCT-15 colon) | TGI (COLO 205 colon) | TGI (M14 melanoma) | TGI (MDA-MB-435) | TGI (NCI-H23 lung) | TGI (SK-OV-3 ovarian) | TGI (PC-3 prostate) | TGI (K-562 leukemia) | TGI (CCRF-CEM leukemia) | GI50 (HS 578T breast) | GI50 (HCT-15 colon) | GI50 (M14 melanoma) | GI50 (NCI-H23 lung) | GI50 (SK-OV-3 ovarian) | GI50 (PC-3 prostate) | GI50 (K-562 leukemia) | GI50 (CCRF-CEM leukemia) | GI50 (COLO 205 colon) | GI50 (MDA-MB-435) |
| --- | --- | --- | --- | --- | --- | --- | --- | --- | --- | --- | --- | --- | --- | --- | --- | --- | --- | --- | --- | --- |
| CC12CCC(Br)C(C)(C)C1CC=C1C(=O)OCC1O2 (stereo unspecified) | 55 µM | 39 µM | 34.7 µM | > 51.9 µM | 35.6 µM | 32 µM | 29.9 µM | 24.2 µM | > 100 µM | – | – | – | – | – | – | – | – | – | – | – |
| COc1cc2c(cc1OC)/C(=C\c1ccccc1N)C(=O)OC2 | – | 27.2 µM | 28.8 µM | 55.4 µM | – | 42.7 µM | 55.7 µM | – | 16.1 µM | 7.06 µM | – | – | – | – | – | – | – | – | – | – |
| COc1cccc(NC(=O)/C(Cc2nc3ccccc3nc2C)=N/NC(=O)C[n+]2ccccc2)c1 | – | > 100 µM | 44.6 µM | > 100 µM | – | > 100 µM | > 100 µM | – | > 100 µM | > 100 µM | – | – | – | – | – | – | – | – | – | – |
| COC(=O)CC[C@H](Cc1ccccc1)NC(=O)c1csc([C@@H](C[C@H](C(C)C)N(C)C(=O)[C@@H](NC(=O)[C@H]2CCCCN2C)C(C)C)OC(C)=O)n1 | > 25 µM | > 25 µM | – | > 25 µM | – | > 25 µM | > 25 µM | > 25 µM | > 25 µM | > 25 µM | < 0.0025 µM | 0.00685 µM | < 0.0025 µM | 0.00515 µM | < 0.0025 µM | < 0.0025 µM | < 0.0025 µM | 0.00289 µM | – | – |
| CC(C)OP(=O)(NC(=S)c1ccccc1)OC(C)C | – | > 100 µM | > 100 µM | > 100 µM | – | > 100 µM | > 100 µM | – | > 100 µM | > 100 µM | – | – | – | – | – | – | – | – | – | – |
| N#CC1CCCCCCCCCCC(=O)N(CCCl)C1=O (stereo unspecified) | – | – | > 100 µM | > 100 µM | – | > 100 µM | > 100 µM | – | > 100 µM | > 100 µM | – | – | – | – | – | – | – | – | – | – |
| CN(C)CCCNC(=O)c1cc(NC(=O)c2cc(NC(=O)CCNS(=O)(=O)c3ccc4c(c3)C(=O)c3ccccc3C4=O)cn2C)cn1C | > 100 µM | – | > 100 µM | – | > 100 µM | > 100 µM | > 100 µM | > 100 µM | > 100 µM | > 100 µM | > 100 µM | – | – | > 100 µM | > 100 µM | > 100 µM | > 100 µM | > 100 µM | > 100 µM | > 100 µM |
| CN(C)CC/[N+]([O-])=C(/c1ccccc1)C12CC3CC(CC(C3)C1)C2 | – | 38.8 µM | 30.3 µM | 26.8 µM | – | 37.4 µM | 31.4 µM | – | 30.8 µM | 34.3 µM | – | – | – | – | – | – | – | – | – | – |
| S=P(N1CC1)(N1CC1)N1CC1 | 913 µM and 962 µM | – | – | – | 403 µM and 509 µM | – | 47.2 µM and 406 µM and 296 µM | 805 µM and 834 µM | 834 µM and 911 µM | > 85.8 µM and 622 µM | 534 µM | 26.2 µM | – | – | 16 µM and 143 µM | 310 µM | 24.5 µM | 2.11 µM | – | 276 µM |
| C=CCC1C(=O)CC2(C)CC(=O)C(CC=C)C12C (stereo unspecified) | – | > 100 µM | > 100 µM | > 100 µM | – | > 100 µM | > 100 µM | – | > 100 µM | > 100 µM | – | – | – | – | – | – | – | – | – | – |
| Cc1cc(C)cc(NC(N)=S)c1 | – | 38.4 µM | 59.1 µM | > 100 µM | – | > 100 µM | – | – | > 100 µM | 48 µM | – | – | – | – | – | – | – | – | – | – |
